Reference: patent publication US11555012B2 (Nimbus Artemis, Inc., priority 2018, dated 2023)
pIC50: −log10 of the molar value. Where two headings read alike, the source gives them in different places.

How the values were obtained:
[1] = tested on: HepG2 cells; conditions: Homo sapiens, HepG2, read-out: ACLY HepG2 14C-Pyruvate Assay serum free IC50 FA (IC50) [μM]
Method: ACLY HepG2 ^14C-Pyruvate Incorporation Serum-Free Assay (IC50 Fatty
The protocol of the assay (below) was followed:
After 48 hours, change medium with fresh growth medium.
After 18 hours, replaced medium using 0.5 mL fresh medium (5.5 mM Glucose, without FBS, 1% PS, without Pyruvate) containing Compounds or 0.5% DMSO, incubated at 37° C., 5% CO2 for 1 hour.
Add 3 μci of [14C]-pyruvate per well to the cell samples were incubated at 37° C., 5% CO2 for 5 hours.
Medium was removed and placed into a 15 mL centrifuge tube. Add 0.5 mL of 0.1M NaOH to each well and then transfer the cell lysates into the corresponding 15 mL centrifuge tubes. 1.0 mL of EtOH and 0.17 mL 50% KOH were added to 15 mL tubes containing medium and cell suspensions, then shaking tube gently. […] Saponification 15 mL tubes containing medium and cell suspensions were incubated at 90° C. for 1 hour, then cooled to room temperature. […] Cholesterol Extraction 5 mL of petroleum ether was added per tube to extract Cholesterol, shaken vigorously, centrifuged at 1000 rpm for 5 min, and ˜5 mL of the petroleum ether layer was transferred to a new glass tube (18*180 mm). […] Acidification The samples in 15 mL tube were acidified directly with 1 mL concentrated HCl, make sure pH was below 1. […] Fatty Acids Extraction 5 mL of petroleum ether was added per tube, shaken vigorously, centrifuged at 1000 rpm for 5 min, 5 mL of the petroleum ether layer was transferred to the corresponding glass tube. […] Repeat the Step 8 10. Count The petroleum ether extracts were pooled and evaporated to dryness overnight. The residue from the petroleum ether fractions were resuspended in 500 μL of chloroform-hexane (1:1) containing 420 μg of linoleic acid as a carrier. Add 200 μL of resuspending (chloroform-hexane (1:1) containing 168 μg of linoleic acid) to 2 mL Ultima Gold™, after 30 min, count on a scintillation counter.

[2] = target: T1, ACL (Homo sapiens (Human), UniProt P53396); assay: ACLY-MDH Coupled Assay
Target sequence in this assay (P53396 whole entry, species assumed): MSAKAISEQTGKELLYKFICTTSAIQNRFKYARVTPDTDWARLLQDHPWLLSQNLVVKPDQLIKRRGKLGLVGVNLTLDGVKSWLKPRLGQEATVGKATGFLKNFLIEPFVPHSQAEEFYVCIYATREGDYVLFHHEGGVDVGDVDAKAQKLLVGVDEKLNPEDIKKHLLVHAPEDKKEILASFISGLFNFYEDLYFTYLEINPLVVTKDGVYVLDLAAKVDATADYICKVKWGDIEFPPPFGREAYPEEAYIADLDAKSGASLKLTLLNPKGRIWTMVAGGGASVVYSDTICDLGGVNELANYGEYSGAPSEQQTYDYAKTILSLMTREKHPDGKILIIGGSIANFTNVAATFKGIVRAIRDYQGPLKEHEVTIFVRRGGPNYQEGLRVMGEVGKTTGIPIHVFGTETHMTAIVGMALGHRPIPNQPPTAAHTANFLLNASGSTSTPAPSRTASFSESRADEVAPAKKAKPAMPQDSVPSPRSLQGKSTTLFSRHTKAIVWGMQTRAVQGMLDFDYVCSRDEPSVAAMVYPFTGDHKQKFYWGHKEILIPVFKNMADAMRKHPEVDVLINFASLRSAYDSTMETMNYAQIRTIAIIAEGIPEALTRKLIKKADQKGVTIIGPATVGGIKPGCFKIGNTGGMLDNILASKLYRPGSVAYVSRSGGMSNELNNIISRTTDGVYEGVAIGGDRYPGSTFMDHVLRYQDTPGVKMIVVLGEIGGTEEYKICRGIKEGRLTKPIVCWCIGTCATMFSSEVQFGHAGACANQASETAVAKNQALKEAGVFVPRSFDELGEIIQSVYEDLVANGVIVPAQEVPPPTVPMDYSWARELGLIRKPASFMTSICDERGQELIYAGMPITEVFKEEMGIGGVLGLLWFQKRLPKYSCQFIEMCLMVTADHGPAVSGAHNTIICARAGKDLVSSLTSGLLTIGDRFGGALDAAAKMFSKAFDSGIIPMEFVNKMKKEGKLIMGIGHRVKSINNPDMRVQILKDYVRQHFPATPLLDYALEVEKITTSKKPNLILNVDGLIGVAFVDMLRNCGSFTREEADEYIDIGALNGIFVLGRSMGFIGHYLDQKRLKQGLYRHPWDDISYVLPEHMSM
Method: Compounds of the present invention were evaluated in an ACLY Coupled Assay.
The assay protocol for the Coupled Assay (below) was followed:
b) Add 1 μL cpds to 96 assay plate, Test cpd conc: 100/30/10 μM top dose, 3 folds dilution, 10+0+control (control: buffer without ACL+DMSO) points, 1000 rpm for 1 min, incubation at 25° C. for 60 min

[3] = target: T1, ACL; assay: ADP-Glo Assay
Target sequence in this assay (P53396 other isoform, or with tags, fused parts or gaps isoform P53396-2): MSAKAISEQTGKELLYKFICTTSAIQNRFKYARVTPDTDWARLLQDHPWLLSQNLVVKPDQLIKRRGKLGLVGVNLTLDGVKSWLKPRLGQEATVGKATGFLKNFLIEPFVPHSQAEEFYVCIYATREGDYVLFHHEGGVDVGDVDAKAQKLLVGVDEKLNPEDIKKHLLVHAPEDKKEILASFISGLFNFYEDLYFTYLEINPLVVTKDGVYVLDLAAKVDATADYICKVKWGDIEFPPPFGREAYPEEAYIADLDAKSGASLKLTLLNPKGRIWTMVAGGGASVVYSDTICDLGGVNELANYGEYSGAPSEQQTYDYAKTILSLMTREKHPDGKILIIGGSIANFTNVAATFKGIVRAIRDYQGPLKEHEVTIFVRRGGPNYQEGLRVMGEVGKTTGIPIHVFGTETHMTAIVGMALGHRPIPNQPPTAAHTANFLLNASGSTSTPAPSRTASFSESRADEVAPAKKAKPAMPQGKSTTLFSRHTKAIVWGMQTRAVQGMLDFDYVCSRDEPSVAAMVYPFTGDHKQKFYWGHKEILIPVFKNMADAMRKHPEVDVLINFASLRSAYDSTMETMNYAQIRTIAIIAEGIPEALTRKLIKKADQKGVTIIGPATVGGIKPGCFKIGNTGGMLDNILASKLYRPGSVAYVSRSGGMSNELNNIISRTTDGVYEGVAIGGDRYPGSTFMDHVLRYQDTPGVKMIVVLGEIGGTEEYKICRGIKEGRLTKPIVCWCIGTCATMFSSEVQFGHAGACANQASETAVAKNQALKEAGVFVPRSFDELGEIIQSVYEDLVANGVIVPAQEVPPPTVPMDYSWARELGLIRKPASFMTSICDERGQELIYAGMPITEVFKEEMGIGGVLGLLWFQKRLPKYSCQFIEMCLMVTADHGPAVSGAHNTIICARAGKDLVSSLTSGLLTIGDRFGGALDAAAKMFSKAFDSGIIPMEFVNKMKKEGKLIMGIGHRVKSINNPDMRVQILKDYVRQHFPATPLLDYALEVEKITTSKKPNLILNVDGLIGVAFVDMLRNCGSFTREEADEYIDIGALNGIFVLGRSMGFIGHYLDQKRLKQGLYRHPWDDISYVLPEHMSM

[4] = tested on: HepG2 cells; conditions: Homo sapiens, HepG2, read-out: ACLY HepG2 14C-Pyruvate Assay serum free IC50 Cholesterol (IC50) [μM]
[5] = read-out: ACL-MDH Coupled Assay (IC50), 8 nM ACL, 60 μM CoA Na2, 85 μM Citrate, 250 μM ATP, 250 μM NADH
[6] = read-out: ACL-ADP-Glo (IC50), 3 nM ACL, 15 μM ATP, 3 μM CoA, 300 μM Citrate

Row | IC50 [1] | pIC50 [2, 5] | pIC50 [3, 6] | IC50 [4] | pIC50 [2] | pIC50 [3] | Structure (SMILES) | pIC50 ([3]; read-out: ACL-ADP-Glo (IC50))
1 | > 10 µM | > 7.30 | > 7.30 | 1 to 5 µM |  |  | O=C(c1cc(Cl)c(O)c(S(=O)(=O)Nc2cc(-c3ccccc3)c(F)cc2F)c1)N1CCCC1 [I-82, 3-chloro-N-(4,6-difluoro-[1,1′-biphenyl]-3-yl)-2-hydroxy-5-(pyrrolidine-1-carbonyl)benzenesulfonamide] | 
2 | 1 to 10 µM |  |  | 1 to 5 µM | 4.52 to 6.30 | 4.70 to 6.30 | O=S(=O)(c1cc(Cl)cc(Br)c1O)N(Cc1ccccc1)c1cc(-c2ccccc2)ccc1F [I-36, N-benzyl-3-bromo-5-chloro-N-(4-fluoro-[1,1′-biphenyl]-3-yl)-2-hydroxybenzenesulfonamide] | 
3 | > 10 µM | > 7.30 | > 7.30 | 1 to 5 µM |  |  | O=S(=O)(Nc1cc(-c2ccccc2)c(F)cc1F)c1cc(Cl)cc(Cl)c1O [I-41, 3,5-dichloro-N-(2,4-difluoro-5-phenylphenyl)-2-hydroxybenzene-1-sulfonamide] | 
4 | > 10 µM |  | > 7.30 | 1 to 5 µM | 6.30 to 7.30 |  | N#Cc1cc(Cl)c(O)c(S(=O)(=O)Nc2cc(-c3ccccc3)ccc2F)c1 [I-31, 3-chloro-5-cyano-N-(4-fluoro-[1,1′-biphenyl]-3-yl)-2-hydroxybenzenesulfonamide] | 
5 | 1 to 10 µM | > 7.30 | > 7.30 | 1 to 5 µM |  |  | COC(=O)c1cc(Cl)c(O)c(S(=O)(=O)Nc2cc(-c3ccccc3)ccc2F)c1 [I-47, Methyl 3-chloro-5-(N-(4-fluoro-[1,1′-biphenyl]-3-yl)sulfamoyl)-4-hydroxybenzoate] | 
6 | 1 to 10 µM |  |  | 1 to 5 µM | 6.30 to 7.30 | 6.30 to 7.30 | COc1c(Cl)cc(Cl)cc1S(=O)(=O)Nc1cc(-c2ccccc2)ccc1C(=O)O [I-281, 3-((3,5-dichloro-2-methoxyphenyl)sulfonamido)-[1,1′-biphenyl]-4-carboxylic Acid] | 
7 | 1 to 10 µM |  |  | 1 to 5 µM | 4.52 to 6.30 | 4.70 to 6.30 | O=C(O)c1ccc(C2CC2)cc1NS(=O)(=O)c1cc(Cl)cc(C(F)(F)F)c1 [I-344, 2-((3-chloro-5-(trifluoromethyl)phenyl)sulfonamido)-4-cyclopropylbenzoic acid] | 
8 | 1 to 10 µM |  | > 7.30 | 1 to 5 µM | 6.30 to 7.30 |  | COC(=O)c1cc(Cl)c(O)c(S(=O)(=O)Nc2cc(-c3ccccc3)c(F)cc2F)c1C [I-126, Methyl 5-chloro-3-([4,6-difluoro-[1,1-biphenyl]-3-yl]sulfamoyl)-4-hydroxy-2-methylbenzoate] | 
9 | 1 to 10 µM | > 7.30 | > 7.30 | 1 to 5 µM |  |  | O=S(=O)(Nc1cc(-c2ccccc2)c(F)cc1F)c1cc(C(F)(F)F)cc(Cl)c1O [I-117, 3-chloro-N-(4,6-difluoro-[1,1′-biphenyl]-3-yl)-2-hydroxy-5-(trifluoromethyl)benzenesulfonamide] | 
10 | 1 to 10 µM |  |  | 1 to 5 µM | 6.30 to 7.30 | 6.30 to 7.30 | COc1c(Cl)cc(C(F)(F)F)cc1S(=O)(=O)Nc1cc(-c2ccccc2)ccc1C(=O)O [I-296, 3-((3-chloro-2-methoxy-5-(trifluoromethyl)phenyl)sulfonamido)-[1,1′-biphenyl]-4-carboxylic Acid] | 
11 | > 10 µM |  |  | 1 to 5 µM | > 7.30 | 6.30 to 7.30 | O=S(=O)(Nc1cc(-c2ccccc2)ccc1F)c1cc(Br)cc(Cl)c1O [I-34, 5-bromo-3-chloro-N-(2-fluoro-5-phenylphenyl)-2-hydroxybenzene-1-sulfonamide] | 
12 | 1 to 10 µM |  |  | 1 to 5 µM | 6.30 to 7.30 | 6.30 to 7.30 | O=C(O)c1cc(F)c(-c2ccccc2)cc1NS(=O)(=O)c1cc(Cl)cc(Cl)c1 [I-287, 5-((3,5-dichlorophenyl)sulfonamido)-2-fluoro-[1,1′-biphenyl]-4-carboxylic Acid] | 
13 | 1 to 10 µM |  |  | 1 to 5 µM | 6.30 to 7.30 | 6.30 to 7.30 | O=C(O)c1ccc(-c2cccs2)cc1NS(=O)(=O)c1cc(Cl)cc(Cl)c1 [I-275, 2-((3,5-dichlorophenyl)sulfonamido)-4-(thiophen-2-yl)benzoic acid] | 
14 | 1 to 10 µM |  |  | 1 to 5 µM | 4.52 to 6.30 | 4.70 to 6.30 | COc1cc(-c2ccccc2)ccc1NS(=O)(=O)c1cc(Cl)cc(Cl)c1O [I-13, 3,5-dichloro-2-hydroxy-N-(3-methoxy-[1,1′-biphenyl]-4-yl)benzenesulfonamide] | 
15 | > 10 µM |  |  | 1 to 5 µM | 4.52 to 6.30 | 6.30 to 7.30 | COC(=O)c1cc(Cl)c(O)c(S(=O)(=O)Nc2cc(-c3cccnc3)ccc2OC)c1 [I-48, Methyl 3-chloro-4-hydroxy-5-(N-(2-methoxy-5-(pyridin-3-yl)phenyl)sulfamoyl)benzoate] | 
16 | > 10 µM |  |  | 1 to 5 µM | 4.52 to 6.30 | 4.70 to 6.30 | COC(=O)c1cc(Cl)c(O)c(S(=O)(=O)Nc2ccc(F)c(-c3ccccc3)c2F)c1 [I-110, Methyl 3-chloro-5-[(2,4-difluoro-3-phenylphenyl)sulfamoyl]-4-hydroxybenzoate] | 
17 | > 10 µM |  |  | 1 to 5 µM | 6.30 to 7.30 | 6.30 to 7.30 | COc1ccc(-c2ccccc2)cc1NS(=O)(=O)c1cc(-c2ncco2)cc(Cl)c1O [I-59, 3-chloro-2-hydroxy-N-(2-methoxy-5-phenylphenyl)-5-(1,3-oxazol-2-yl)benzene-1-sulfonamide] | 
18 | 1 to 10 µM |  |  | 1 to 5 µM | 6.30 to 7.30 | 6.30 to 7.30 | CC(C)C(=O)Oc1c(Cl)cc(-c2cncs2)cc1S(=O)(=O)Nc1cc(-c2ccccc2)c(F)cc1F [I-213, 2-chloro-6-(N-(4,6-difluoro-[1,1′-biphenyl]-3-yl)sulfamoyl)-4-(thiazol-5-yl)phenyl Isobutyrate] | 
19 | 1 to 10 µM |  |  | 1 to 5 µM | 4.52 to 6.30 | 4.70 to 6.30 | O=S(=O)(Nc1ccccc1OCc1ccccc1)c1cc(Cl)cc(Cl)c1O [I-15, N-(2-(benzyloxy)phenyl)-3,5-dichloro-2-hydroxybenzenesulfonamide] | 
20 | > 10 µM | > 7.30 | > 7.30 | 1 to 5 µM |  |  | O=C(c1cc(Cl)c(O)c(S(=O)(=O)Nc2cc(-c3ccccc3)c(F)cc2F)c1)N1CCC1 [I-98, 5-(azetidine-1-carbonyl)-3-chloro-N-(4,6-difluoro-[1,1′-biphenyl]-3-yl)-2-hydroxybenzenesulfonamide] | 
21 | > 10 µM | > 7.30 | > 7.30 | 1 to 5 µM |  |  | COC(=O)c1cc(Cl)c(O)c(S(=O)(=O)Nc2cc(C3CC3)c(F)cc2F)c1 [I-127, Methyl 3-chloro-5-[(5-cyclopropyl-2,4-difluorophenyl)sulfamoyl]-4-hydroxybenzoate] | 
22 | > 10 µM | > 7.30 | > 7.30 | 1 to 5 µM |  |  | O=S(=O)(Nc1cc(-c2ccccc2)c(F)cc1F)c1cc(Br)cc(Cl)c1O [I-88, 5-bromo-3-chloro-N-[4,6-difluoro-[1,1-biphenyl]-3-yl]-2-hydroxybenzene-1-sulfonamide] | 
23 | 1 to 10 µM |  |  | 1 to 5 µM | 6.30 to 7.30 | 6.30 to 7.30 | COc1ccc(-c2cccs2)cc1NS(=O)(=O)c1cc(Cl)cc(Cl)c1O [I-9, 3,5-dichloro-2-hydroxy-N-(2-methoxy-5-(thiophen-2-yl)phenyl)benzenesulfonamide] | 
24 | > 10 µM |  |  | 5 to 20 µM | 6.30 to 7.30 | 6.30 to 7.30 | O=c1[nH]cc(Cl)cc1S(=O)(=O)Nc1cc(-c2ccccc2)c(F)cc1F [I-298, 5-chloro-N-[4,6-difluoro-[1,1-biphenyl]-3-yl]-2-oxo-1,2-dihydropyridine-3-sulfonamide] | 
25 | 1 to 10 µM |  |  | 1 to 5 µM | 6.30 to 7.30 | 6.30 to 7.30 | COc1ccc(-c2ccccc2)cc1NS(=O)(=O)c1c(C)c(Cl)cc(Cl)c1O [I-1, 3,5-dichloro-2-hydroxy-N-(4-methoxy-[1,1′-biphenyl]-3-yl)-6-methylbenzenesulfonamide] | 
26 | 1 to 10 µM |  |  | 1 to 5 µM | 6.30 to 7.30 | 6.30 to 7.30 | O=S(=O)(Nc1cc(-c2ccccc2)c(F)cc1F)c1cc(F)cc(Cl)c1O [I-135, 3-chloro-N-[4,6-difluoro-[1,1-biphenyl]-3-yl]-5-fluoro-2-hydroxybenzene-1-sulfonamide] | 
27 | 1 to 10 µM |  |  | 1 to 5 µM | > 7.30 | 6.30 to 7.30 | COc1ccc(-c2ccccc2)cc1NS(=O)(=O)c1cc(Cl)cc(Br)c1O [I-20, 3-bromo-5-chloro-2-hydroxy-N-(2-methoxy-5-phenylphenyl)benzene-1-sulfonamide] | 
28 | > 10 µM |  |  | 1 to 5 µM | 4.52 to 6.30 | 4.70 to 6.30 | O=S(=O)(Nc1ccc(-c2ccccn2)cc1F)c1cc(Cl)cc(Cl)c1O [I-235, 3,5-dichloro-N-(2-fluoro-4-(pyridin-2-yl)phenyl)-2-hydroxybenzenesulfonamide] | 

Row | Structure (SMILES) | IC50 [1] | pIC50 [2, 5] | pIC50 [3, 6] | IC50 [4] | pIC50 [2] | pIC50 [3] | pIC50 ([3]; read-out: ACL-ADP-Glo (IC50))
29 | COC(=O)c1cc(Cl)c(O)c(S(=O)(=O)Nc2cc(-c3ccccc3)c(F)cc2F)c1 [I-65, Methyl 3-chloro-5-[(2,4-difluoro-5-phenylphenyl)sulfamoyl]-4-hydroxybenzoate] | > 10 µM | > 7.30 |  | 5 to 20 µM |  |  | > 7.30
30 | COc1ccc(-c2ccccc2)cc1NS(=O)(=O)c1cc(C(=O)N2CCC2)cc(Cl)c1O [I-145, 5-(azetidine-1-carbonyl)-3-chloro-2-hydroxy-N-[4-methoxy-[1,1-biphenyl]-3-yl]benzene-1-sulfonamide] | > 10 µM | > 7.30 | > 7.30 | 1 to 5 µM |  |  | 
